{"source": "patent US8512957B2", "about": "“Toxicity typing using liver stem cells” (Vistagen Therapeutics, Inc., priority 2000, dated 2013)", "origin": "cited, not measured here", "key": {"[1]": {"settings": "known toxicity class, printed in first toxicity column (Dev = developmental)"}, "liver": {"test_system": "liver", "settings": "known toxicity of the drug, stated in words"}}}
{"smiles": "CCOC(=O)C(C)(C)Oc1ccc(Cl)cc1", "note": "[clofibrate]", "values": [{"measurement": "TOXICITIES EV", "setting": "[1]", "value": "tc"}]}
{"smiles": "CCC(=O)O[C@H]1[C@H](O[C@@H]2[C@@H](C)[C@H](O[C@H]3C[C@@](C)(OC)[C@@H](O)[C@H](C)O3)[C@@H](C)C(=O)O[C@H](CC)[C@@](C)(O)[C@H](O)[C@@H](C)C(=O)[C@H](C)C[C@@]2(C)O)O[C@H](C)C[C@@H]1N(C)C", "note": "[erythromycin estolate]", "values": [{"measurement": "liver toxicity", "setting": "liver", "value": "known liver toxicity"}]}
{"smiles": "CN(CCOc1ccc(CC2SC(=O)NC2=O)cc1)c1ccccn1", "note": "(stereo not shown) [rosiglitazone]", "values": [{"measurement": "TOXICITIES EV", "setting": "[1]", "value": "tc"}]}
{"smiles": "Cc1c(C)c2c(c(C)c1O)CCC(C)(COc1ccc(CC3SC(=O)NC3=O)cc1)O2", "note": "(stereo not shown) [troglitazone]", "values": [{"measurement": "liver toxicity", "setting": "liver", "value": "rare but severe liver toxicity"}]}
